In US11938122B2, “5-[[4-[2-[5-(1-hydroxyethyl)pyridin-2-yl]ethoxy]phenyl]methyl]-1,3- thiazolidine-2,4-dione for treating nonalcoholic fatty liver disease” (Minoryx Therapeutics S.L., priority 2016, dated 2024):

Columns and labels:
CYP1A2 [1] = biological target: T1, CYP1A2 (Homo sapiens, UniProt P05177); assay: CYP inhibition, cocktail incubation, pooled human liver microsomes; type: in vitro ADME; conditions: reaction ACET
T1 construct: in incubations with a pool of human liver microsomes; from tissue; host or cells: pooled human liver microsomes
T1 sequence (P05177 1-516): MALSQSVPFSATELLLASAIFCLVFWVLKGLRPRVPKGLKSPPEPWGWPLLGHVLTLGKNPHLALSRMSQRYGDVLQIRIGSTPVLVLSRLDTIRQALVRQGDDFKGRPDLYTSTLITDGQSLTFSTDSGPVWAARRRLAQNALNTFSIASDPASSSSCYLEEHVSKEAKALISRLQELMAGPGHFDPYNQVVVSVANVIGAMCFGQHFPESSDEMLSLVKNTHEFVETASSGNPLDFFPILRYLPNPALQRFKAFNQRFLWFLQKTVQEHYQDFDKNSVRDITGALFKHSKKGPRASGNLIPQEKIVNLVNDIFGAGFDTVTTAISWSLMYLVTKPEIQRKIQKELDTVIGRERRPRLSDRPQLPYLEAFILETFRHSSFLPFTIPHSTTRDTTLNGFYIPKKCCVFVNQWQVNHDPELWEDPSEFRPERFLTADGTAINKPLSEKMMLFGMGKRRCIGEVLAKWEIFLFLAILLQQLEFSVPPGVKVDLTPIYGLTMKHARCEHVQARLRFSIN
Procedure: (§1) Inhibition was screened using a cocktail incubation with CYP specific substrates for eight major drug metabolizing CYP enzymes (CYPs 1A2, 2A6, 2B6, 2C8, 2C9, 2C19, 2D6 and 3A4) in incubations with a pool of human liver microsomes. In reversible inhibition, MIN-102 was incubated with buffer, microsomes, cofactor NADPH and CYP-specific substrate cocktail mix for 15 min. In TDI study, buffer and microsomes were preincubated with MIN-102 in the presence and absence of cofactor NADPH for 0 or 30 min to elucidate the possible time-dependency of inhibition. Secondary incubation was conducted with CYP-specific substrate cocktail mix for 30 min. MIN-102 was used at final concentrations of 0.01, 0.1, 1, 10, and 100 μM in both assays.

CYP2A6 = biological target: T2, CYP2A6 (Homo sapiens, UniProt P11509); assay: as above; type: in vitro ADME; conditions: reaction 7OH-COU
T2 construct: in incubations with a pool of human liver microsomes; from tissue; host or cells: pooled human liver microsomes
T2 sequence (P11509 1-494): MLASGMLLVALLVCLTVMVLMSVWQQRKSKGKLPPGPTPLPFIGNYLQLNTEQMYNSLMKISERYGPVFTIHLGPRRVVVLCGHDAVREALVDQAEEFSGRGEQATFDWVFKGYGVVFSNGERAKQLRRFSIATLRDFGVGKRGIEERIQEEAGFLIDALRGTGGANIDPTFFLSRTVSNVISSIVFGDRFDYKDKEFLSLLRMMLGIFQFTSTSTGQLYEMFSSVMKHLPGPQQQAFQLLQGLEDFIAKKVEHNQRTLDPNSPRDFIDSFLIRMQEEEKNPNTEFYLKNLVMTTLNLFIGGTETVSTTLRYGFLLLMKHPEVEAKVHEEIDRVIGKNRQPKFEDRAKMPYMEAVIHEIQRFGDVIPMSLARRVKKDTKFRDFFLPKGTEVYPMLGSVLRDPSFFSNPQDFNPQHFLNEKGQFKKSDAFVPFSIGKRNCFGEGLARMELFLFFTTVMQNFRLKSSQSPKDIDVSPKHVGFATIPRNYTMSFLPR
Procedure: as §1

CYP2B6 = biological target: T3, CYP2B6 (Homo sapiens, UniProt P20813); assay: as above; type: in vitro ADME; conditions: reaction OH-BUP
T3 construct: in incubations with a pool of human liver microsomes; from tissue; host or cells: pooled human liver microsomes
T3 sequence (P20813 1-491): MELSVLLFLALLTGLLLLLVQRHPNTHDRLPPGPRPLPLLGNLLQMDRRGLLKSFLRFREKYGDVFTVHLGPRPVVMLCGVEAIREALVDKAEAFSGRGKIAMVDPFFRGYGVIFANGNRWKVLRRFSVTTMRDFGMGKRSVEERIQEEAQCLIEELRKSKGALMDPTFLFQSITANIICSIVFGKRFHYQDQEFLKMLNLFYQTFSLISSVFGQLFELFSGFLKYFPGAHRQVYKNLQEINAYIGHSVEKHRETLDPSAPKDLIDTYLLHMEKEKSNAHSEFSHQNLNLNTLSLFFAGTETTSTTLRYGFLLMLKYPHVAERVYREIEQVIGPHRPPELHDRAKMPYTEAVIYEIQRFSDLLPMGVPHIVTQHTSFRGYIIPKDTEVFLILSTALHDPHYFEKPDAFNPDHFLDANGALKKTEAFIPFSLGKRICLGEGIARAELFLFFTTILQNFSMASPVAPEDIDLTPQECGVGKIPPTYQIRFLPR
Procedure: as §1

CYP2C19 = biological target: T4, CYP2C19 (Homo sapiens, UniProt P33261); assay: as above; type: in vitro ADME
T4 construct: in incubations with a pool of human liver microsomes; from tissue; host or cells: pooled human liver microsomes
T4 sequence (P33261 whole entry): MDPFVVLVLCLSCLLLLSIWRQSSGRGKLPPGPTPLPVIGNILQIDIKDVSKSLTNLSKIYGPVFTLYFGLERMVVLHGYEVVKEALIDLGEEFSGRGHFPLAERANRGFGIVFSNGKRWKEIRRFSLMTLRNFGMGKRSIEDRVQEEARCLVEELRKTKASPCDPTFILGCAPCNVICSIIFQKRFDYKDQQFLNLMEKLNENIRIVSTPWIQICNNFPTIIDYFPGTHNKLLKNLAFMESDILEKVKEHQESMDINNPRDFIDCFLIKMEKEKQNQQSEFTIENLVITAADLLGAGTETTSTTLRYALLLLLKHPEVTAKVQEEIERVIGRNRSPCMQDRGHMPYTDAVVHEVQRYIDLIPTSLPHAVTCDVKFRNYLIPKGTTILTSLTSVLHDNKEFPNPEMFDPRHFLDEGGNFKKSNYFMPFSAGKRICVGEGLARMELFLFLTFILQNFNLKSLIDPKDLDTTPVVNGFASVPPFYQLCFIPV
Procedure: as §1

CYP2C8 = biological target: T5, CYP2C8 (Homo sapiens, UniProt P10632); assay: as above; type: in vitro ADME; conditions: reaction OH-REPA
T5 construct: in incubations with a pool of human liver microsomes; from tissue; host or cells: pooled human liver microsomes
T5 sequence (P10632 1-490): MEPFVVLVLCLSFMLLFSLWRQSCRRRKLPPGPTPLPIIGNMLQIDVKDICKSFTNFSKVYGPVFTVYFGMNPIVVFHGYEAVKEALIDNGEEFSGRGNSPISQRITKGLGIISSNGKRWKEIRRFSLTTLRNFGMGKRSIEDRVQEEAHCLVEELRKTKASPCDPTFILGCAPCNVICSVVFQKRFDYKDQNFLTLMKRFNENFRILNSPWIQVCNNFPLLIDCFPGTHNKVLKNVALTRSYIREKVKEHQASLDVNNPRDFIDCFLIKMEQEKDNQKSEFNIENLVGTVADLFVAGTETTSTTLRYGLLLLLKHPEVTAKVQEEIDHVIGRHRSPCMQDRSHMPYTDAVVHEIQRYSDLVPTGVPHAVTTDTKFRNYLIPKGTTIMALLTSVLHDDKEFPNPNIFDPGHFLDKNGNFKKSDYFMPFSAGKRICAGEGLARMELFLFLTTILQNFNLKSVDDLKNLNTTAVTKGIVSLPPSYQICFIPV
Procedure: as §1

CYP2C9 = biological target: T6, CYP2C9 (Homo sapiens, UniProt P11712); assay: as above; type: in vitro ADME; conditions: reaction OH-DICL
T6 construct: in incubations with a pool of human liver microsomes; from tissue; host or cells: pooled human liver microsomes
T6 sequence (P11712 whole entry): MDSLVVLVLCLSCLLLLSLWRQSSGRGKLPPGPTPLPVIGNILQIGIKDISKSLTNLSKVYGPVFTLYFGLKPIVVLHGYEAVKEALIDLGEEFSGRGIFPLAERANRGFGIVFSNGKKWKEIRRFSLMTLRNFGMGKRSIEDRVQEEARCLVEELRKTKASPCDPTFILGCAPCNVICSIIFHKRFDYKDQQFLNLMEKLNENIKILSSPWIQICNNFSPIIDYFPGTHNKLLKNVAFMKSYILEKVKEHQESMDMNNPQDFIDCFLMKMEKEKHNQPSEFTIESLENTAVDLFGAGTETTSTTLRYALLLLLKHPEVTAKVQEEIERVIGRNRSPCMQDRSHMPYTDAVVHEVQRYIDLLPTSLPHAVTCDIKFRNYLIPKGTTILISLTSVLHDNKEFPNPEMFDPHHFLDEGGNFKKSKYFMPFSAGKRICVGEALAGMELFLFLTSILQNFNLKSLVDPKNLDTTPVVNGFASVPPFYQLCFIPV
Procedure: as §1

CYP2D6 = biological target: T7, CYP2D6 (Homo sapiens, UniProt P10635); assay: as above; type: in vitro ADME; conditions: reaction O-dem-DEX
T7 construct: in incubations with a pool of human liver microsomes; from tissue; host or cells: pooled human liver microsomes
T7 sequence (P10635 whole entry): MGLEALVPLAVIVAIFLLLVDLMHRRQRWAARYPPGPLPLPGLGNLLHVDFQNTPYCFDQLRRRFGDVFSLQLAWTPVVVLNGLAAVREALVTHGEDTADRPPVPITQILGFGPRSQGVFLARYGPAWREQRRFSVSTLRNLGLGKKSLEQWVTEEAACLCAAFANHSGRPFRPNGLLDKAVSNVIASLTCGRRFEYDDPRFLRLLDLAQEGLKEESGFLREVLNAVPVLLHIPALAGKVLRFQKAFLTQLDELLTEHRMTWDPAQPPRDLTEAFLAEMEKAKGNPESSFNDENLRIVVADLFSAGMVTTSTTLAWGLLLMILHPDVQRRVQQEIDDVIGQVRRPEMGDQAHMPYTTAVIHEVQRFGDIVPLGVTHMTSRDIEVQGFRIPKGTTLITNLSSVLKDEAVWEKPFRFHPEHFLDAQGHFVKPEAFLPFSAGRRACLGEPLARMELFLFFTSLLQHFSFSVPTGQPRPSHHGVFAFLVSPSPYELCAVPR
Procedure: as §1

CYP3A4 = biological target: T8, CYP3A4 (Homo sapiens, UniProt P08684); assay: as above; type: in vitro ADME
T8 construct: in incubations with a pool of human liver microsomes; from tissue; host or cells: pooled human liver microsomes
T8 sequence (P08684 whole entry): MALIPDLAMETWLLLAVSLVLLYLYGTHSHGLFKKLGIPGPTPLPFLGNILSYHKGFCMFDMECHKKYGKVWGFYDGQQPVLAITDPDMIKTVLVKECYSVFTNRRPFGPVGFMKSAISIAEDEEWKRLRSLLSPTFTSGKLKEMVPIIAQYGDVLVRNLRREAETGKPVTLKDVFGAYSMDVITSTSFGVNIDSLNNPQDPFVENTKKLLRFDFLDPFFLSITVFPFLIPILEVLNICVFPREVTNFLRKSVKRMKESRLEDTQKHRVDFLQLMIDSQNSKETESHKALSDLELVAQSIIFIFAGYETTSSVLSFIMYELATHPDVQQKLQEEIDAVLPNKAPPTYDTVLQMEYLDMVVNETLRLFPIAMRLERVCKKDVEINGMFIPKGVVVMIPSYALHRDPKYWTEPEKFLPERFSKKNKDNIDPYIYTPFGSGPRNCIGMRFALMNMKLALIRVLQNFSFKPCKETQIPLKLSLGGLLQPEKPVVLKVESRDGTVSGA
Procedure: as §1

CYP1A2 [2] = assay: CYP induction in cryopreserved human hepatocytes; type: in vitro ADME; conditions: 50 μM, hepatocytes from 3 human donors
[3] = MIN-102 single oral dose (SAD) pharmacokinetics in healthy subjects; conditions: human, in vivo, some doses

IC50 (CYP1A2 [1]): > 100 µM
IC50 (CYP2A6): > 100 µM
IC50 (CYP2B6): > 100 µM
IC50 (CYP2C19; reaction 5-OH-OME): > 100 µM
IC50 (CYP2C19; reaction dem-OME): > 100 µM
IC50 (CYP2C8): 102 µM
Ki (CYP2C8; read-out: Tentative Ki): 84 µM
IC50 (CYP2C9): 103 µM
Ki (CYP2C9; read-out: Tentative Ki): 52 µM
IC50 (CYP2D6): > 100 µM
IC50 (CYP3A4; reaction 1-OH-MDZ): > 100 µM
IC50 (CYP3A4; reaction 3-OH-OME): > 100 µM
IC50 (CYP3A4; reaction 6β-OH-TES): > 100 µM
IC50 (CYP3A4; reaction SO-OME): > 100 µM
AUC(0-inf) [3]: 20 to 400 µg·h/mL
SMILES: CC(O)c1ccc(CCOc2ccc(CC3SC(=O)NC3=O)cc2)nc1 (racemic) [MIN-102, 5-[[4-[2-[5-(1-hydroxyethyl)pyridin-2-yl]ethoxy]phenyl]methyl]-1,3-thiazolidine-2,4-dione]
increase in activity of CYP1A2 probe reaction (CYP1A2 [2]): less than 20 % of the respective positive control induction
